From patent US20070225292A1, “Therapeutic Compounds: Pyridine as Scaffold” (priority 2004, published 2007)

Experiments:
Human CB1 receptor [1] = target: T1, Human CB1 receptor (Homo sapiens, UniProt P21554); experiment: hCB1 GTPγS binding; format: biochemical; conditions: human CB1 membranes, GTPg35S binding; for Emax: maximal stimulated binding with 10 μM Win 55,212-2; for EC50: read-out: EC5O (hCB1)
T1 construct: purchased Receptor Biology
Protocol: Human CB1 receptor from Receptor Biology (hCB1) or human CB2 receptor membranes (BioSignal) are thawed at 37° C., passed 3 times through a 25-gauge blunt-end needle and diluted in the GTPγS binding buffer (50 mM Hepes, 20 mM NaOH, 100 mM NaCl, 1 mM EDTA, 5 mM MgCl2, pH 7.4, 0.1% BSA). The EC50 and Emax of the compounds of the invention are evaluated from 10-point dose-response curves done in 300 μl with the appropriate amount of membrane protein and 100000-130000 dpm of GTPg^35S per well (0.11-0.14 nM). The basal and maximal stimulated binding is determined in absence and presence of 1 μM (hCB2) or 10 μM (hCB1) Win 55,212-2 respectively. The membranes are pre-incubated for 5 minutes with 56.25 μM (hCB2) or […] (hCB1) GDP prior to distribution in plates (15 μM (hCB2) or 30 μM (hCB1) GDP final). The plates are vortexed and incubated for 60 minutes at room temperature, filtered on Unifilters GF/B (presoaked in water) with the Tomtec or Packard harvester using 3 ml of wash buffer (50 mM Tris, 5 mM MgCl2, 50 mM NaCl, pH 7.0). The filters are dried for 1 hour at 55° C. The radioactivity (cpm) is counted in a TopCount (Packard) after adding 65 μl/well of MS-20 scintillation liquid. Antagonist reversal studies are done in the same way except that (a) an agonist dose-response curve is done in the presence of a constant concentration of antagonist, or (b) an antagonist dose-response curve is done in the presence of a constant concentration of agonist.

Human CB1 receptor [2] = target: T1, Human CB1 receptor; experiment: hCB1 receptor binding (3H-CP55,940 displacement); conditions: human CB1 membranes, Ki=IC50/(1+[rad]/Kd)
Protocol: Human CB1 receptor from Receptor Biology (hCB1) or human CB2 receptor from BioSignal (hCB2) membranes are thawed at 37° C., passed 3 times through a 25-gauge blunt-end needle, diluted in the cannabinoid binding buffer (50 mM Tris, 2.5 mM EDTA, 5 mM MgCl2, and 0.5 mg/mL BSA fatty acid free, pH 7.4) and aliquots containing the appropriate amount of protein are distributed in 96-well plates. The IC50 of the compounds of the invention at hCB1 and hCB2 are evaluated from 10-point dose-response curves done with ^3H-CP55,940 at 20000 to 25000 dpm per well (0.17-0.21 nM) in a final volume of 300 μl. The total and non-specific binding are determined in the absence and presence of 0.2 μM of HU210 respectively. The plates are vortexed and incubated for 60 minutes at room temperature, filtered through Unifilters GF/B (presoaked in 0.1% polyethyleneimine) with the Tomtec or Packard harvester using 3 mL of wash buffer (50 mM Tris, 5 mM MgCl2, 0.5 mg BSA pH 7.0). The filters are dried for 1 hour at 55° C. The radioactivity (cpm) is counted in a TopCount (Packard) after adding 65 μl/well of MS-20 scintillation liquid.
Based on the above assays, the dissociation constant (Ki) for a particular compound of the invention towards a particular receptor is determined using the following equation: Ki=IC50/(1+[rad]/Kd),
Wherein IC50 is the concentration of the compound of the invention at which 50% displacement has been observed;
[rad] is a standard or reference radioactive ligand concentration at that moment; and
Kd is the dissociation constant of the radioactive ligand towards the particular receptor.

T1 sequence (P21554 whole entry): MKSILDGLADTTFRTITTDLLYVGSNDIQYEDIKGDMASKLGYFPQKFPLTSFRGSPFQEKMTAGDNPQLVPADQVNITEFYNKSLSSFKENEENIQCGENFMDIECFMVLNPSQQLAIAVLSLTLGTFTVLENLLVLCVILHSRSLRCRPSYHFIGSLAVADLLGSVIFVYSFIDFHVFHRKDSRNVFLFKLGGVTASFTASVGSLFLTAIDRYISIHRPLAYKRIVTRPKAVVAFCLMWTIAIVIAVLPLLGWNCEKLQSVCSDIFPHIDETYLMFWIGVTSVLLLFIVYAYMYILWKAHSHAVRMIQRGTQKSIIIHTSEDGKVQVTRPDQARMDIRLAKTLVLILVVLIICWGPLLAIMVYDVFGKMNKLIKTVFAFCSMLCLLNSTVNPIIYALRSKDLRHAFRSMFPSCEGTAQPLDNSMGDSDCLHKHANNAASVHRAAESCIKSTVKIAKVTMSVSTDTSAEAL

Structure (SMILES) | Emax (Human CB1 receptor [1]) | EC50 (Human CB1 receptor [1]) | Ki (Human CB1 receptor [2])
O=C(NCC1CCCC1)c1ncccc1NC(=O)c1cccc2ccccc12 [Example 13, N-(Cyclopentylmethyl)-3-[(1-naphthalenylcarbonyl)amino]-2-pyridinecarboxamide] | 105% | 46 nM | 12 nM
O=C(NCC1CCOCC1)c1nccnc1NC(=O)c1cccc2ccccc12 [Example 43, 3-(1-Naphthoylamino)-N-(tetrahydro-2H-pyran-4-ylmethyl)pyrazine-2-carboxamide] | 112% | 907 nM | 181 nM
Cc1ccc(C(=O)Nc2cccnc2C(=O)NCc2ccccn2)c2ccccc12 [Example 80, 3-(4-Methyl 1-naphthoylamino)-N-(pyridin-2-ylmethyl)pyridine-2-carboxamide] | 75% | 1230 nM | 221 nM
O=C(NCC1CCCCC1)c1ncccc1NC(=O)c1ccc(N2CCC2)c2ccccc12 [Example 171, 3-[(4-Azetidin-1-yl-1-naphthoyl)amino]-N-(cyclohexylmethyl)pyridine-2-carboxamide] | 71% | 217 nM | 57 nM
